The test concerns the target T1, chymase derived from human skin (Homo sapiens, UniProt P23946).
T1 construct: chymase derived from human skin (Elastin Products Co.); purchased Elastin Products Co; host or cells: human skin (tissue-derived)
T1 sequence (P23946 22-247): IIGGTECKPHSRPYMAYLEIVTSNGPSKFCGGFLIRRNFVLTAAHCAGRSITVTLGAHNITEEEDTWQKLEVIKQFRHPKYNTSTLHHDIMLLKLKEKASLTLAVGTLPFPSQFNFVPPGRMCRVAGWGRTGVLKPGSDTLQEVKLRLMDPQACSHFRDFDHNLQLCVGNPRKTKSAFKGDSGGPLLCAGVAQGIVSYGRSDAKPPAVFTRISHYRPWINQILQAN
Put plainly: Inhibitory effect on chymase (in vitro test). The test is classed as biochemical. As to conditions: 50 ng chymase, fluorescent synthetic substrate 0.1 mM, pH 8.0, 37° C. for 2 hours. The procedure: Inhibitory Effect on Chymase (In Vitro Test)
To 100 μl of a buffer solution A (50 mM Tris-hydrochloric acid (pH=8.0), 2M NaCl) were added 50 ng of chymase derived from human skin (Elastin Products Co.), a fluorescent synthetic substrate 0.1 mM succinyl-alanylprolyl-phenylalanine-methylcoumalylamide (Peptide Laboratories Co., Ltd.) and a test substance dissolved in dimethyl sulfoxide (DMSO), and the resulting mixture was incubated at 37° C. for 2 hours. Then, the intensity of fluorescence was measured at an excitation wavelength of 355 nm and a measuring wavelength of 460 nm by the use of a fluorescence plate reader (Fluoroscan (Dainippon Pharmaceutical Co., Ltd.)). A fluorescence intensity value obtained without adding the test substance was taken as 100% and a concentration at which a fluorescence intensity value calculated from a regression line became 50% was taken as IC50.

`Cc1cn(Cc2cccc3ccccc23)/c(=N/S(=O)(=O)c2ccccc2C(=O)O)s1` [Example 1, 2-({[(2Z)-5-methyl-3-(1-naphthylmethyl)-1,3-thiazol-2(3H)-ylidene]amino}sulfonyl)benzoic acid]: half-maximal inhibition (IC50) was put at 2.1 nM.

The values above are taken from US20070105908A1, “Thiazolimine compound and oxazolimine compound” (DAINIPPON SUMITOMO PHARMA CO., LTD., priority 2003, published 2007).
